# Laboratory results: PubChem BioAssay (NCI)
# Several values for one entry are separate records, joined by “and”; a condition that tells them apart may be missing. Equal values may be shown once.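 Assay format: 96-well plates, 48-hour exposure. GI50: concentration for 50% inhibition of growth. TGI: total growth inhibition.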
# What was measured:
# Test in all cases: NCI anticancer screen, dose series, 48 h
# [1] = system: A549 NSCLC
# [2] = system: CCRF-CEM leukemia
# [3] = system: COLO 205 colon
# [4] = system: HCT-15 colon
# [5] = system: KM12 colon
# [6] = system: KM20L2 colon
# [7] = system: LOX IMVI melanoma
# [8] = system: NCI-H23 lung
# [9] = system: OVCAR-8 ovarian
# [10] = system: UACC-257 melanoma
Compound,TGI [1],TGI [2],TGI [3],TGI [4],TGI [5],TGI [6] [µM],TGI [7],TGI [8],TGI [9],TGI [10],GI50 [1] [µM],GI50 [2],GI50 [3],GI50 [4],GI50 [5] [µM],GI50 [8],GI50 [10]
CC(C)(C)N/N=C(\Cc1occc(=O)c1O)C(=O)Nc1ccc([N+](=O)[O-])cc1[N+](=O)[O-],> 100 µM,> 100 µM,> 100 µM,> 100 µM,> 100 µM,> 100,> 100 µM,> 100 µM,> 100 µM,> 100 µM,,,,,,,
CC(=O)OCCOCNC(=S)N/N=C/c1ccc2ccccc2n1,> 100 µM,> 100 µM,46.6 µM,> 100 µM,> 100 µM,79.8,> 100 µM,> 100 µM,> 100 µM,> 100 µM,,,,,,,
Nc1ncnc2c1ncn2C1OC(CSC(F)(F)F)C(O)C1O (configuration not stated),> 100 µM,> 100 µM,> 100 µM,> 100 µM,> 100 µM,> 100,> 100 µM,> 100 µM,> 100 µM,> 100 µM,,,,,,,
COc1ccc(C2=Nc3ccccc3SC(C)C2)cc1 (configuration not stated),> 100 µM,> 100 µM,> 100 µM,> 100 µM,> 100 µM,> 100,> 100 µM,> 100 µM,> 100 µM,> 100 µM,,,,,,,
CCOC(=O)c1cc(/C=C/C(C)=C/C(=O)OC)oc1-c1ccccc1,> 100 µM,> 100 µM,> 100 µM,> 100 µM,> 100 µM,> 100,> 100 µM,> 100 µM,> 100 µM,> 100 µM,,,,,,,
[N-]=[N+]=Nc1ccc(CCN2CCN(c3cccc(C(F)(F)F)c3)CC2)cc1I,> 100 µM,> 100 µM,> 100 µM,> 100 µM,> 100 µM,> 100,> 100 µM,> 100 µM,> 100 µM,> 100 µM,,,,,,,
Cc1ccc(C2CC(c3ccc([N+](=O)[O-])cc3)=Nc3ccccc3S2)cc1 (configuration not stated),> 100 µM,34.2 µM,> 100 µM,46.2 µM,75.2 µM,96.7,34.6 µM,77.4 µM,72.3 µM,> 100 µM,,,,,,,
O=C1c2cccc3cc([N+](=O)[O-])cc(c23)C(=O)N1NC1=NCCN1,> 100 µM,> 100 µM,> 100 µM,> 100 µM,> 100 µM,> 100,> 100 µM,> 100 µM,> 100 µM,> 100 µM,,,,,,,
COC(=O)C1CC(=O)CCC1c1ccccc1 (configuration not stated),> 100 µM,> 100 µM,> 100 µM,> 100 µM,> 100 µM,> 100,> 100 µM,> 100 µM,> 100 µM,> 100 µM,,,,,,,
CCC1=C(C)/C(=C/c2[nH]c(C(Br)Br)c(CC)c2C)N=C1C(Br)Br,> 100 µM,55.3 µM,21 µM,> 100 µM,80.4 µM,> 100,> 100 µM,> 100 µM,> 100 µM,57.6 µM,,,,,,,
NC(N)=NS(=O)(=O)c1ccc(Nc2c3ccccc3nc3c(C(=O)N4CCN(CCO)CC4)cccc23)cc1,> 100 µM,> 100 µM,> 100 µM,> 100 µM,> 100 µM,> 100,> 100 µM,> 100 µM,> 100 µM,> 100 µM,,,,,,,
N=CCCN(CCC=N)c1ccc(/C=C2\CN(NC(=O)c3ccc(Cl)cc3)C(c3ccccc3)=N2)cc1,> 100 µM,> 100 µM,> 100 µM,> 100 µM,> 100 µM,> 100,> 100 µM,> 100 µM,> 100 µM,> 100 µM,,,,,,,
NC(C/[N+]([O-])=N/O)C(=O)O (configuration not stated),> 100 µM and 67.9 µM,> 100 µM and 418 µM,> 62.7 µM and > 100 µM and 256 µM,> 100 µM and 329 µM,31.1 µM and > 100 µM and 144 µM,> 500,> 100 µM and 153 µM,> 100 µM and 154 µM,> 100 µM and 459 µM,> 100 µM and 456 µM,0.24,> 29.3 µM and 11.3 µM,21.6 µM and 69.7 µM and 17.4 µM,3.65 µM and 6.69 µM and 1.8 µM,0.543,3.85 µM and 12.6 µM and 1.61 µM,18 µM and 68.2 µM and 52.5 µM
